PMC11784839, “Monoaminergic neurotransmitters are bimodal effectors of tau aggregation” (Science Advances, 2025)

Target: tau (Homo sapiens, UniProt P10636)
Experiment: MCE Phenols Library screening, tau biosensor cell seeding assay (AvZ)
Assay type: cell-based
Settings: for Z repl 1 / Z Repl 2: Z score; for Z repl 1 / raw data 1: replicate 1; for Z Repl 2 / raw data 2: replicate 2; for AvZ (average z score of seeding, SDs from the mean level of seeding): 10 μM phenol in cell cultures, AD brain homogenate preincubated 16 hours, two biological replicates, positive = catalyzes seeding, negative = inhibits
[1] = average Z score of the two replicates, MCE Phenols Library screen
[2] = average Z score of the two replicates, tau biosensor seeding, MCE Phenols Library screen
[3] = average puncta of the two replicates
[4] = average Z score of two replicates, Phenols Library screen
[5] = average Z score of the two replicates, tau seeding

Sequence of tau (P10636 623-695 limits assumed): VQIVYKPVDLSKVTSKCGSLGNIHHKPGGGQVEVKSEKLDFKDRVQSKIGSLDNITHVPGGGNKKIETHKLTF

Row | Z repl 1 | Z Repl 2 | av Z [1] | av puncta (average of raw data 1 and 2) | raw data 1 (puncta) | raw data 2 (puncta) | av Z [2] | av puncta [3] | av Z [4] | av Z [5] | SMILES | AvZ (average z score of seeding, SDs from the mean level of seeding) | raw data 1 (raw puncta) | raw data 2 (raw puncta)
1 | 1.152 | 0.927 |  | 31424.7 | 40179 | 22670.4 | 1.04 |  |  |  | O=c1c(O[C@@H]2O[C@H](CO)[C@@H](O)[C@H](O)[C@H]2O[C@@H]2O[C@H](CO)[C@@H](O)[C@H](O)[C@H]2O)c(-c2ccc(O)c(O)c2)oc2cc(O)cc(O)c12 [Baimaside] |  |  | 
2 | -0.876 | -0.134 | -0.505 |  | 15835.9 | 11333.2 |  | 13584.6 |  |  | CC(C)=CCc1cc(C(=O)/C=C/c2ccc(O)cc2)c(O)cc1O [Bavachalcone] |  |  | 
3 | -0.343 | -0.767 | -0.555 |  | 22229.8 | 4573.9 |  | 13401.9 |  |  | CC(C)=CCc1cc2c(cc1O)O[C@H](c1ccc(O)cc1)CC2=O [Bavachin] |  |  | 
4 | 0.602 | -0.122 |  | 22516.9 | 33572.4 | 11461.3 |  |  |  | 0.24 | O=C(/C=C/c1ccc(O)cc1)CC(=O)/C=C/c1ccc(O)cc1 [Bisdemethoxycucurmin] |  |  | 
5 | 0.124 | 0.085 |  | 20753.8 | 27836.8 | 13670.7 |  |  | 0.104 |  | CC(C)(c1ccc(O)cc1)c1ccc(O)cc1 [Bisphenol A] |  |  | 
6 | -0.753 | -0.754 | -0.753 |  | 17305.9 | 4717.73 |  | 11011.8 |  |  | COc1cc(O)c2c(c1)O[C@H](c1cc(O)cc(O)c1)CC2=O [Blumeatin] |  |  | 
7 | -0.564 | -0.743 | -0.654 |  | 19572.7 | 4834.73 |  | 12203.7 |  |  | Oc1ccc2c(c1)OC[C@]1(O)Cc3cc(O)c(O)cc3[C@H]21 [Brazilin] |  |  | 
8 | -1.001 | -1.013 | -1.007 | 8139.85 | 14330.3 | 1949.4 |  |  |  |  | O=C1CC(C(=O)O)c2c1oc(=O)c1cc(O)c(O)c(O)c21 (stereo not shown) [Brevifolincarboxylic acid] |  |  | 
9 | -0.211 | 0.15 |  | 19090.8 | 23813.7 | 14367.8 |  |  | -0.031 |  | O=C(/C=C/c1ccc(O)c(O)c1)c1ccc(O)cc1O [Butein] |  |  | 
10 | -0.317 | -0.61 |  |  | 22545.7 | 6248.57 |  | 14397.2 |  |  | O=C(/C=C/c1ccc(O)c(O)c1)O[C@@H](C(=O)O)[C@@H](O)C(=O)O [Caftaric acid] | -0.464 |  | 
11 | 0.11 | -0.703 | -0.297 |  |  |  |  | 16462.2 |  |  | O=C(/C=C/c1ccc(O)c(O)c1)OC[C@H]1O[C@@H](OCCc2ccc(O)c(O)c2)[C@H](O)[C@@H](O)[C@@H]1O [Calceolarioside B] |  | 27671.5 | 5252.85
12 | 0.722 | 1.127 |  | 29908.6 | 35020 | 24797.2 | 0.924 |  |  |  | COc1ccc(-c2coc3cc(O[C@@H]4O[C@H](CO)[C@@H](O)[C@H](O)[C@H]4O)ccc3c2=O)cc1O [Calycosin-7-O-?-D-glucoside] |  |  | 
13 | 0.387 | -0.53 |  | 19046 | 30989.7 | 7102.22 |  |  | -0.072 |  | COc1ccc(-c2coc3cc(O)ccc3c2=O)cc1O [Calycosin] |  |  | 
14 | 0.436 | -0.449 |  | 19780.5 | 31586 | 7974.93 |  |  | -0.006 |  | CC(C)c1cc2c(c(O)c1O)[C@@]13CCCC(C)(C)[C@@H]1C[C@@H]2OC3=O [Carnosol] |  |  | 
15 | -0.542 | -0.523 | -0.532 |  | 19846.5 | 7181.16 |  | 13513.8 |  |  | Oc1cc(O)c2c(c1)O[C@H](c1ccc(O)c(O)c1)[C@@H](O)C2 [Catechin] |  |  | 
16 | -2.151 |  | -1.662 | 382.845 | 523.863 | 241.827 |  |  |  |  | O=C(O)C[C@@H]1C(=O)O[C@H]2[C@@H]3OC(=O)c4cc(O)c(O)c(O)c4-c4c(cc(O)c(O)c4O)C(=O)OC[C@H]2O[C@@H](OC(=O)c2cc(O)c(O)c(O)c2)[C@@H]3OC(=O)c2cc(O)c(O)c3c2[C@H]1[C@H](O)C(=O)O3 [Chebulagic acid] |  |  | 
17 | -1.01 |  | -1.092 | 7230.09 | 14229.4 | 230.797 |  |  |  |  | O=C(O)C[C@H](C(=O)O)[C@H]1c2c(cc(O)c(O)c2O)C(=O)O[C@@H]1C(=O)O [Chebulic acid] |  |  | 
18 | 0.232 | -0.247 |  | 19631.7 | 29136 | 10127.4 |  |  | -0.007 |  | O=C(/C=C/c1ccc(O)c(O)c1)O[C@@H]1C[C@](O)(C(=O)O)C[C@@H](O)[C@H]1O [Chlorogenic acid] |  |  | 
19 | 0.79 | 0.073 |  | 24687.2 | 35829.5 | 13544.8 |  |  |  | 0.431 | O=C(O)[C@H]1O[C@@H](Oc2cc(O)c3c(=O)cc(-c4ccccc4)oc3c2)[C@H](O)[C@@H](O)[C@@H]1O [Chrysin-7-O-glucuronide] |  |  | 
20 | 0.623 | -0.203 |  | 22210.2 | 33824.2 | 10596.2 |  |  |  | 0.21 | COc1cc(-c2cc(=O)c3c(O)cc(O)cc3o2)ccc1O [Chrysoeriol] |  |  | 
21 | 0.088 | -0.899 | -0.406 |  |  |  |  | 15282.9 |  |  | COc1cc(-c2oc3cc(OC)c(OC)c(O)c3c(=O)c2OC)ccc1O [Chrysosplenetin] |  | 27400 | 3165.82

Row | SMILES | Z repl 1 | Z Repl 2 | av Z [1] | av puncta (average of raw data 1 and 2) | raw data 1 (puncta) | raw data 2 (puncta) | av Z [2] | av puncta [3] | av Z [4] | av Z [5] | AvZ (average z score of seeding, SDs from the mean level of seeding) | raw data 1 (raw puncta) | raw data 2 (raw puncta)
22 | COc1cc(O)c2c(=O)c(OC)c(-c3ccc(OC)c(O)c3)oc2c1 [Ayanin] | -1.206 | -0.903 | -1.054 | 7498.38 | 11871.6 | 3125.17 |  |  |  |  |  |  | 
23 | COc1ccc(-c2oc3c(CC=C(C)C)c(O)cc(O)c3c(=O)c2O[C@@H]2O[C@@H](C)[C@H](O)[C@@H](O)[C@H]2O)cc1 [Baohuoside I] | 0.959 | 1.521 |  | 33434.4 | 37856.1 | 29012.8 | 1.24 |  |  |  |  |  | 
24 | COc1ccc2cc3[n+](cc2c1O)CCc1cc2c(cc1-3)OCO2.[Cl-] [Berberrubine (chloride)] | 0.031 | -0.189 |  | 18734.2 | 26719.5 | 10748.8 |  |  | -0.079 |  |  |  | 
25 | COc1c(O)cc2c(c1O)[C@@H]1O[C@H](CO)[C@@H](O)[C@H](O)[C@H]1OC2=O [Bergenin] | 0.275 | -0.537 |  | 18336.6 | 29646.8 | 7026.42 |  |  | -0.131 |  |  |  | 
26 | CC(=O)OC(C)(C)CC(=O)O[C@H](CC=C(C)C)C1=CC(=O)c2c(O)ccc(O)c2C1=O [Beta-Acetoxyisovalerylshikonin] | -0.24 | 0.548 |  | 21041.3 | 23464.1 | 18618.6 |  |  |  | 0.154 |  |  | 
27 | O=C(/C=C/c1ccc(O)c(O)c1)OCCc1ccccc1 [Caffeic acid phenethyl ester] | -0.979 | -0.394 | -0.686 |  | 14598.6 | 8559.5 |  | 11579.1 |  |  |  |  | 
28 | COc1cc(CNC(=O)CCCC/C=C/C(C)C)ccc1O [Capsaicin, reference compound] | 0.025 | -0.661 |  |  |  |  |  | 16179.6 |  |  | -0.318 | 26653.4 | 5705.75
29 | COc1cc(O)cc(O)c1C(=O)/C=C/c1ccccc1 [Cardamonin] | -0.394 | 0.139 |  | 17936.7 | 21621.9 | 14251.5 |  |  | -0.127 |  |  |  | 
30 | Cc1ccc(C(C)C)cc1O [Carvacrol] | 0.54 | 1.419 |  | 30376.1 | 32834.5 | 27917.7 |  |  |  |  | 0.979 |  | 
31 | CC[C@H]1CN2CCc3cc(OC)c(OC)cc3[C@@H]2C[C@@H]1C[C@H]1NCCc2cc(O)c(OC)cc21.Cl.Cl [Cephaeline (dihydrochloride)] | -0.202 | -0.66 | -0.431 |  |  |  |  | 14823.1 |  |  |  | 23925.6 | 5720.59
32 | O=C(O)C[C@@H]1C(=O)O[C@H]2[C@H](OC(=O)c3cc(O)c(O)c(O)c3)[C@@H](OC(=O)c3cc(O)c(O)c4c3[C@H]1[C@H](O)C(=O)O4)[C@H](OC(=O)c1cc(O)c(O)c(O)c1)O[C@@H]2COC(=O)c1cc(O)c(O)c(O)c1 [Chebulinic acid] | -2.186 | -1.184 | -1.685 | 117.372 | 108.91 | 125.835 |  |  |  |  |  |  | 
